Data: patent US20100113613A1, “CYCLOHEXANE POLYALCOHOL FORMULATION FOR TREATMENT OF DISORDERS OF PROTEIN AGGREGATION” (WARATAH PHARMACEUTICALS, priority 2006, published 2010)
Several values for one entry are separate records, joined by “and”; a condition that tells them apart may be missing. Equal entries are not always repeated.

Assays:
in vivo [1] = conditions: rat
Experimental: Plasma PK of a scyllo-cyclohexanehexyl compound in rats was assessed after 28 days oral dosing of 15, 50 and 150 mg/kg, administered twice daily. […] Indeed, at this dose level, the Vdss, clearance and elimination rates appeared to be reduced with repeated dosing. […] As for single doses, the scyllo-cyclohexanehexyl was absorbed rapidly, with mean tmax observed between 1.2 and 1.3 hours post-dose. […] Estimates of MRT were consistent.

in vivo [2] = conditions: dog, po
Experimental: (§1) Three studies were performed to investigate the pharmacokinetics of oral administration of a scyllo-cyclohexanehexyl (Table 1):
Two studies have investigated the single dose PK of oral administration of a scyllo-cyclohexanehexyl in dogs. The 14 day study investigated 18 animals. On Day 1 of this study Cmax and AUC values increased proportionally with dose level of a scyllo-cyclohexanehexyl. […] The extensive brain penetrance of the scyllo-cyclohexanhexyl (see below) may be relevant in this regard.

in vivo [3] = conditions: rat, po, 150 mg/kg
Experimental: as §1
Plasma pharmacokinetics (PK) of a scyllo-cyclohexanehexyl in rats was assessed after single oral doses of 15, 50 and 150 mg/kg. After single oral doses in rats, maximum plasma concentration (Cmax) and exposure (AUC0-t) values increased proportionally with dose level of the scyllo-cyclohexanehexyl. Other parameters were unchanged with dose level. The scyllo-cyclohexanehexyl was absorbed rapidly, with mean tmax observed between 1.0 and 2.2 hours post-dose. […] Estimates of mean residence time (MRT) were consistent. Volumes of distribution (Vdss) were large, indicating wide distribution of scyllo-cyclohexanehexyl in rats.

in vivo [4] = conditions: dog, po, 150 mg/kg
Experimental: Plasma PK of a scyllo-cyclohexanhexyl in dogs was assessed after 14 days oral dosing of 15, 50 and 150 mg/kg, administered twice daily. As on Day 1 of this study Cmax and AUC values increased proportionally with dose level of scyllo-cyclohexanehexyl. However, dose-normalised exposures appeared to decrease with dose. This contrasts with positive trend observed after acute exposure. […] As for single doses, the scyllo-cyclohexanehexyl was absorbed rapidly, with tmax observed between 1.1 and 1.8 hours post-dose. […] Estimates of MRT were consistent. The Vdss and Cl/F values were similar for all dose levels.

[5] = CSF and plasma levels at end of 14 day repeat dose study in dogs; assay type: in vivo, dog; conditions: 30 mg/kg/day for 14 days
Experimental: CSF was also collected from dogs at the end of the 14 day repeat study upon necropsy (approximately 24 hours after the final dose was administered). Levels of the scyllo-cyclohexanehexyl in CSF increased with dose and followed the profile observed in plasma.

[6] = Brain penetrance: plasma and CSF pharmacokinetics after single oral doses in dogs; assay type: in vivo, dog
Description: CSF bathes the central nervous system and sits on the inside of the blood brain barrier. Although a centrally-acting drug will still need to penetrate brain tissue to exert an effect, quantification of drug in CSF may provide a gross estimate of brain-penetrance.

[7] = Single oral and intravenous dose pharmacokinetics, dose range-finding study in beagle dogs; assay type: in vivo, beagle dog; conditions: dogs, comparison of PK profiles following oral and i.v. administration
Experimental: PK of single oral doses of the scyllo-cyclohexanhexyl was also investigated in a preliminary fashion in a dose range-finding study in 5 beagle dogs. […] The Cmax and AUC values increased proportionally with dose, consistent with observations in the larger study. Estimates of t½ ranged from 2 to 5 hours. Neither dose nor route of administration had any clear effect on t½, MRT, Cl/F or Vdss.

[8] = single oral doses 20, 80, 240 mg/kg

With scyllo-inositol [AZD-103] the “mean plasma concentration 12 hours after the last administration” value (in vivo [1]) was about 6000 ng/mL, the AUC(0-t) (in vivo [1]; po, 150 mg/kg) was 573 µg·h/mL and the mean tmax (in vivo [1]; po, 150 mg/kg) was 1.2 to 1.3 h. For the same substance, the t½ (in vivo [1]; po, 150 mg/kg) was 3.1 to 4.4 h, the Tmax (in vivo [2]) was 1.2 to 2.2 h and the t½ (in vivo [2]) was 1.7 to 2.2 h. The “half life (t1/2)” value (in vivo [3]) was 2.1 to 2.7 h, the mean tmax (in vivo [3]) was 1.0 to 2.2 h and the AUC(0-t) (in vivo [4]) was 523 µg·h/mL. For the same substance, the Tmax (in vivo [4]) was 1.1 to 1.8 h, the t½ (in vivo [4]) was 2.9 to 4.7 h and the “levels in both plasma and CSF (12 and 24 hours after the last administration)” value [5] was about 4000 ng/mL. For the same substance, the “Mean Cmax and AUC0-Inf in CSF as % of that observed in plasma” value [6] was 60%, the “plasma tmax (same animals)” value [6, 8] was 2.3 to 2.8 h and the “tmax in CSF” value [6, 8] was 2.8 to 4.0 h. For the same substance, the “Mean Cmax in CSF as % of plasma Cmax” value ([6]; single oral doses 20, 80, 240 mg/kg, same animals) was 27-66%, the “AUC0-Inf in CSF as % of that in plasma” value ([6]; single oral doses, same animals, listed as scyllo-cyclohexanehexyl) was 62% and 65% and the estimated bioavailability [7] was over 90%.
